In assay [1] the target is T1, Arabidopsis TGD2, DsRed-TGD2C WT (DR-WT) fusion protein, residues 119-381, SEQ ID NO:107 (Arabidopsis thaliana, UniProt Q9LTR2).
T1 construct: made in house; host or cells: Escherichia coli BL21 (DE3)
T1 sequence (Q9LTR2 119-381): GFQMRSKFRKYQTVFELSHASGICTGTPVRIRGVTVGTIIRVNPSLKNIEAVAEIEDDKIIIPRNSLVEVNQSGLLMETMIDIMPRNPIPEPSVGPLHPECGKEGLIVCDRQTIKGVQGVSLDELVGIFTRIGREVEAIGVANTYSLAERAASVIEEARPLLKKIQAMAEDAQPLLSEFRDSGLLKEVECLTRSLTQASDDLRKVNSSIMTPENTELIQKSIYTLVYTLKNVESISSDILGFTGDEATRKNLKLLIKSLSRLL
The assay is described as follows: Liposome-association assay (mixed PA/PC liposomes), DsRed-TGD2C WT. The following applies: PC, PA/PC or PA liposomes, FIG. 3B. It is filed as binding. The protocol:
FIG. 2A: Analysis by liposome-association assay. A mixture of dioleoyl-PA and dioleoyl-PC was used where the weight percent of PA was varied from 0-100% (wt/wt), maintaining the total lipid invariant at 250 μg. 1 μg protein was used. P, protein recovered in the absence of lipids.
In this assay, purified recombinant proteins were incubated with liposomes for 30 min at 30° C. before centrifugation at 20,000 g for 10 min to pellet the liposomes. Proteins bound to the liposomes were found associated with the lipid pellet, whereas non-binding proteins remained in the supernatant. In an effort to determine the optimal concentration of PA required for high specificity binding, a PA/PC liposome mixture containing varying weight fractions of PA was prepared and incubated with DsRed-TGD2CWT or DsRed alone.
(§1) The liposome association assay was performed as previously reported. (31). Briefly, lipids (dioleoyl-phosphatidylcholine, DOPC or dioleoyl-PA, DOPA) were incubated in TBS (50 mM Tris-HCl, pH 7; 0.1 M NaCl) at 37° C. for an hour followed by vigorous vortexing for 5 min. The liposomes were precipitated at 20,000 g and washed twice with ice-cold TBS.
(§2) Liposomes (200 μg) were mixed with purified DsRed-TGD2 fusion protein and TBS to make a final 100 μL solution. The mixture was incubated at 30° C. for 30 min and washed twice with ice-cold TBS by centrifugation at 20,000 g at 4° C. The liposome pellet mixed with sample buffer was analyzed by SDS-PAGE (28). Immuno-detection of the His-tagged protein was accomplished using the above mentioned Penta-His antibody at 1:15,000 and the anti mouse antibody at 1:75,000 dilution.
(§3) The protein band was visualized by chemiluminescent detection kit from Sigma. The autoradiography film was scanned, distinct protein bands were quantified using computer software Multi Gauge V3.0 (Fujifilm USA, Valhalla, N.Y.) and resulted data were plotted and analyzed by OriginPro8 (Origin lab corporation, Northampton, Mass.).

The subject of assay [2] is DsRed protein (Discosoma sp. red fluorescent protein). The assay is described as follows: Liposome-association assay, DsRed control. It is filed as binding. The settings on record: FIG. 3B. How it is done: as §1, §2, §3
For assay [3], the target named is Arabidopsis TGD2, DsRed fusion of the 25-mer minimal domain (residues 201-225, SEQ ID NO:12), K221A (Arabidopsis thaliana, UniProt Q9LTR2, K221A). The assay is described as follows: Liposome-association assay, point mutant K221A of the minimal domain. It is filed as binding. The following applies: PC liposomes; any of the constructs. How it is done:
Some reports have identified that TGD2 PA-binding regions involve basic amino acids and/or tryptophan residues (10). […] Based on sequence similarity of TGD2 to its closely related homologs in plants and green algae, several charged and/or conserved amino acids were picked as potential interesting residues in the 25-mer minimal domain for possibly mediating interactions with PA. An alanine screen was then performed to evaluate these residues within a minimal PA binding region of TGD2 (i.e., for example, SEQ ID NO:12). Point mutations were generated in the 25-mer minimal domain and fused with DsRed to test PA binding by liposome-association assay using 100% PA liposomes.
The liposome association assay was performed as previously reported. (31). […]
Liposomes (200 μg) were mixed with purified DsRed-TGD2 fusion protein and TBS to make a final 100 μL solution. […] The liposome pellet mixed with sample buffer was analyzed by SDS-PAGE (28). […]
as §3

Assay [4] deals with T2, Arabidopsis TGD2, N-terminally truncated TGD2-dTMD-His (from Gly-119) (Arabidopsis thaliana, UniProt Q9LTR2).
T2 sequence (Q9LTR2 119-381): T1 sequence (Q9LTR2 119-381)
The assay can be described thus: Liposome binding assay, TGD2-dTMD-His. The following applies: phosphatidylcholine liposomes with or without PA (6:4 wt/wt). The protocol: The liposome binding assay was performed as previously reported. Sano et al., (1998) J. Biol. Chem. 273:4783-4789. Lipids (i.e., for example, phosphatidylcholine or a mixture of phosphatidylcholine and PA at 6:4 wt/wt) were incubated in TBS (50 mM Tris/HCl, pH 7/0.1M NaCl) at 37° C. for 1 hour followed by vigorous vortexing for 5 min. The liposomes were precipitated at 20,000×g and washed twice with ice-cold TBS.
Liposomes (200 μg) were mixed with purified TGD2 protein lacking the TMD (10 μg/ml) and TBS to make 100 μl of solution. The mixture was incubated at 30° C. for 30 min and washed twice with ice-cold TBS by centrifugation at 20,000×g at 4° C. The liposome pellet mixed with sample buffer was analyzed by SDS/PAGE. Laemmli, U. K. (1970) Nature 227, 680-685. Immunodetection of the His-tagged protein was accomplished by using the above-mentioned Penta-His antibody at 1:6,000 and the anti-mouse antibody at 1:10,000 dilutions. The BCIP/NBT Kit from Bio-Rad was used for color detection.

Chain of Arabidopsis TGD2, DsRed fusion of the 25-mer minimal domain (residues 201-225, SEQ ID NO:12), K221A (Q9LTR2 201-225 K221A): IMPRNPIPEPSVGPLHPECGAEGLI

In the case of `CCCCCCCC/C=C\CCCCCCCC(=O)OC[C@H](COP(=O)([O-])OCC[N+](C)(C)C)OC(=O)CCCCCCC/C=C\CCCCCCCC` [PC, phosphatidylcholine], in assay [1], the “binding to PA or PC” value is recorded as “no interaction”. In addition, the “binding to PC or PA” value in assay [2] is listed as “does not display binding”. For the same compound, the PC-liposome binding result in assay [3] is “No detectable PC-liposome binding”. In addition, the liposome binding result in assay [4] is “did not bind”.
